The results in this text go back to patent US10988449B2, “Isoxazole derivatives as nuclear receptor agonists and uses thereof” (IL DONG PHARMACEUTICAL CO., LTD., priority 2017, dated 2021).

In general, EC50 refers to the concentration at which the effect is half-maximal. The Emax is the size of the effect at its maximum, as opposed to the concentration needed.

The experiment deals with T1, human FXR (Homo sapiens, UniProt Q96RI1).
T1 construct: expressed in transfected cells
T1 sequence (Q96RI1 1-486): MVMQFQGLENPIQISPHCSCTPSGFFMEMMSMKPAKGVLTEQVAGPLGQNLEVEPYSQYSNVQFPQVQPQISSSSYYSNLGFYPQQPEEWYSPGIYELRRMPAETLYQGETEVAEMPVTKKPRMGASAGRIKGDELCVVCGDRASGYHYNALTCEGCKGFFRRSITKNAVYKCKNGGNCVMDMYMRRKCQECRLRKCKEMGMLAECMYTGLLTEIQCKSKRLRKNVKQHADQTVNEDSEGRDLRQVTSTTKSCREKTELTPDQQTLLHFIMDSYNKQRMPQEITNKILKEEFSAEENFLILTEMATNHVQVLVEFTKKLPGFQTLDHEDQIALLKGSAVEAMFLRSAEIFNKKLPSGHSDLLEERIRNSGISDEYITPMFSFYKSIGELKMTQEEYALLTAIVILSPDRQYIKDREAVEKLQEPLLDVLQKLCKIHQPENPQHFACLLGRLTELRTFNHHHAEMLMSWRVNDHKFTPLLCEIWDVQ
The experiment can be described thus: FXR reporter assay (cellular FXR activities). It counts as cell-based. To be noted: for EC50: FXR reporter cells, 24 hours incubation, luciferase, read-out: Reporter Cell EC50; for Emax: read-out: Emax (%) (GW4064 Emax = 100%). How it is done:
FXR reporter assay was performed to measure cellular FXR activities of the compounds in the present invention. FXR reporter cells with high expression level of human FXR were seeded into 96-well cell culture plates, and incubated for 1-2 hours at 37° C. under 5% CO2 atmosphere. The invented compounds diluted in DMSO with various concentrations were added to the 96-well cell culture plates, and they were incubated for 24 hours at 37° C. under 5% CO2 atmosphere. After incubation, we calculate EC50 by using luciferase substrate.

Where a name gives a salt, the structure may show the parent alone.

Turning to `O=C(O)c1cc(C#Cc2ccc(OCc3c(-c4c(Cl)cccc4Cl)noc3C3CC3)cc2Cl)c2ccn(CCO)c2c1` [Compound I-97, 4-((2-chloro-4-((5-cyclopropyl-3-(2,6-dichlorophenyl)isoxazol-4-yl)methoxy)phenyl)ethynyl)-1-(2-hydroxyethyl)-1H-indole-6-carboxylic acid], the EC50 was no more than 20 nM and the Emax was found to be 94%.
For `O=C(O)c1cc(C#Cc2ccc(OCc3c(-c4c(Cl)cccc4Cl)noc3C3CC3)cc2Cl)cc(C(=O)O)c1` [Compound I-84, 5-((2-chloro-4-((5-cyclopropyl-3-(2,6-dichlorophenyl)isoxazol-4-yl)methoxy)phenyl)ethynyl)isophthalic acid], the EC50 lay in the range of 200 to 1000 nM and the Emax amounted to 98%.
On the same counts, the results for `O=C(O)c1ccc(C#Cc2ccc(OCc3c(-c4c(Cl)cccc4Cl)noc3C3CC3)cc2Cl)nc1` [Compound I-17, 6-((2-chloro-4-((5-cyclopropyl-3-(2,6-dichlorophenyl)isoxazol-4-yl)methoxy)phenyl)ethynyl)nicotinic acid] are 200 to 1000 nM and 89%.
On the same counts, the results for `O=C(O)c1cccc(C#Cc2cc(Cl)c(OCc3c(-c4c(Cl)cccc4Cl)noc3C3CC3)cc2Cl)c1` [Compound I-68, 3-((2,5-dichloro-4-((5-cyclopropyl-3-(2,6-dichlorophenyl)isoxazol-4-yl)methoxy)phenyl)ethynyl)benzoic acid] are greater than 1000 nM and 96%.
Take `O=C(O)c1cc(C#Cc2ccc(OCc3c(-c4c(Cl)cccc4Cl)noc3C3CC3)cc2Cl)ccc1Cl` [Compound I-29, 2-chloro-5-((2-chloro-4-((5-cyclopropyl-3-(2,6-dichlorophenyl)isoxazol-4-yl)methoxy)phenyl)ethynyl)benzoic acid]: the EC50 lay within 60 to 200 nM and the Emax turned out to be 93%.
In the same order, the values of `C#Cc1ccc(OCc2c(-c3c(Cl)cccc3Cl)noc2C2CC2)cc1Cl` [Compound I-5, 4-((3-chloro-4-ethynylphenoxy)methyl)-5-cyclopropyl-3-(2,6-dichlorophenyl)isoxazole] are 200 to 1000 nM and 84%.
Consider `O=C(O)c1cccc(C#Cc2ccc(OCc3c(-c4c(Cl)cccc4Cl)noc3C3CC3)cc2Cl)n1` [Compound I-19, 6-((2-chloro-4-((5-cyclopropyl-3-(2,6-dichlorophenyl)isoxazol-4-yl)methoxy)phenyl)ethynyl)picolinic acid], for which the EC50 was no more than 20 nM and the Emax stood at 99%.
Regarding `O=C(Nc1cc(C#Cc2ccc(OCc3c(-c4c(Cl)cccc4Cl)noc3C3CC3)cc2Cl)cc(C(=O)O)c1)OC1CC1` [Compound I-76, 3-((2-chloro-4-((5-cyclopropyl-3-(2,6-dichlorophenyl)isoxazol-4-yl)methoxy)phenyl)ethynyl)-5-((cyclopropoxycarbonyl)amino)benzoic acid], the EC50 is no more than 20 nM and the Emax is greater than 100%.
On the same counts, the results for `CCc1cc(C#Cc2ccc(OCc3c(-c4c(Cl)cccc4Cl)noc3C3CC3)cc2Cl)cc(C(=O)O)c1` [Compound I-65, 3-((2-chloro-4-((5-cyclopropyl-3-(2,6-dichlorophenyl)isoxazol-4-yl)methoxy)phenyl)ethynyl)-5-ethylbenzoic acid] are 60 to 200 nM and 92%.
On the same counts, the results for `Cc1nc2cc(C#Cc3ccc(OCc4c(-c5c(Cl)cccc5Cl)noc4C4CC4)cc3Cl)cc(C(=O)O)c2o1` [Compound I-103, 5-((2-chloro-4-((5-cyclopropyl-3-(2,6-dichlorophenyl)isoxazol-4-yl)methoxy)phenyl)ethynyl)-2-methylbenzo[d]oxazole-7-carboxylic acid] are no more than 20 nM and greater than 100%.
`COc1cc(C#Cc2ccc(OCc3c(-c4c(Cl)cccc4Cl)noc3C3CC3)cc2Cl)cc(C(=O)O)c1` [Compound I-40, 3-((2-chloro-4-((5-cyclopropyl-3-(2,6-dichlorophenyl)isoxazol-4-yl)methoxy)phenyl)ethynyl)-5-methoxybenzoic acid]: the EC50 is 20 to 60 nM and the maximum response (Emax) is 83%.
On the same counts, the results for `CCCCc1nc2cc(C#Cc3ccc(OCc4c(-c5c(Cl)cccc5Cl)noc4C4CC4)cc3Cl)cc(C(=O)O)c2o1` [Compound I-111, 2-butyl-5-((2-chloro-4-((5-cyclopropyl-3-(2,6-dichlorophenyl)isoxazol-4-yl)methoxy)phenyl)ethynyl)benzo[d]oxazole-7-carboxylic acid] are 20 to 60 nM and 98%.
In the same order, the values of `O=C(O)c1ccc(C#Cc2ccc(OCc3c(-c4c(Cl)cccc4Cl)noc3C3CC3)cc2C(F)(F)F)cc1` [Compound I-4, 4-((4 ((5-cyclopropyl-3-(2,6-dichlorophenyl)isoxazol-4-yl)methoxy)-2-(trifluoromethyl)phenyl)ethynyl)benzoic acid] are 60 to 200 nM and 91%.
As for `O=C(O)c1cc(Cl)cc(C#Cc2ccc(OCc3c(-c4c(Cl)cccc4Cl)noc3C3CC3)cc2Cl)c1` [Compound I-27, 3-chloro-5-((2-chloro-4-((5-cyclopropyl-3-(2,6-dichlorophenyl)isoxazol-4-yl)methoxy)phenyl)ethynyl)benzoic acid], the EC50 is 20 to 60 nM and the Emax was 91%.
In the same order, the values of `O=C(O)c1cccc(C#Cc2ccc(OCc3c(-c4ccccc4C(F)(F)F)noc3C3CC3)cc2Cl)c1` [Compound I-87, 3-((2-chloro-4-((5-cyclopropyl-3-(2-(trifluoromethyl)phenyl)isoxazol-yl)methoxy)phenyl)ethynyl)benzoic acid] are 200 to 1000 nM and greater than 100%.
Consider `Cc1nc2cc(C#Cc3ccc(OCc4c(-c5c(Cl)cccc5Cl)noc4C4CC4)cc3Cl)cc(C(=O)O)c2nc1C` [Compound I-109, 7-((2-chloro-4-((5-cyclopropyl-3-(2,6-dichlorophenyl)isoxazol-4-yl)methoxy)phenyl)ethynyl)-2,3-dimethylquinoxaline-5-carboxylic acid], for which the EC50 is 20 to 60 nM and the Emax amounted to 100%.
In the same order, the values of `COC(Cn1ccc2c(C#Cc3ccc(OCc4c(-c5c(Cl)cccc5Cl)noc4C4CC4)cc3Cl)cc(C(=O)O)cc21)OC` [Compound I-96, 4-((2-chloro-4-((5-cyclopropyl-3-(2,6-dichlorophenyl)isoxazol-4-yl)methoxy)phenyl)ethynyl)-1-(2,2-dimethoxyethyl)-1H-indole-6-carboxylic acid] are no more than 20 nM and 98%.
In the same order, the values of `CCN(CC)c1cc(C#Cc2ccc(OCc3c(-c4c(Cl)cccc4Cl)noc3C3CC3)cc2Cl)cc(C(=O)O)c1` [Compound I-24, 3-((2-chloro-4-((5-cyclopropyl-3-(2,6-dichlorophenyl)isoxazol-4-yl)methoxy)phenyl)ethynyl)-5-(diethylamino)benzoic acid] are 20 to 60 nM and greater than 100%.
In the same order, the values of `CC(C)(C)NCc1cc(C#Cc2ccc(OCc3c(-c4c(Cl)cccc4Cl)noc3C3CC3)cc2Cl)cc(C(=O)O)c1` [Compound I-48, 3-((tert-butylamino)methyl)-5-((2-chloro-4-((5-cyclopropyl-3-(2,6-dichlorophenyl)isoxazol-4-yl)methoxy)phenyl)ethynyl)benzoic acid] are 200 to 1000 nM and 81%.
As for `O=C(O)c1cc(C#Cc2ccc(OCc3c(-c4c(Cl)cccc4Cl)noc3C3CC3)cc2Cl)cc(NC2CCNCC2)c1` [Compound I-58, 3-((2-chloro-4-((5-cyclopropyl-3-(2,6-dichlorophenyl)isoxazol-4-yl)methoxy)phenyl)ethynyl)-5-(piperidin-4-ylamino)benzoic acid hydrochloride], the EC50 was greater than 1000 nM and the Emax was determined as 75%.
Consider `CS(=O)(=O)Nc1cc(C#Cc2ccc(OCc3c(-c4c(Cl)cccc4Cl)noc3C3CC3)cc2Cl)cc(C(=O)O)c1` [Compound I-86, 3-((2-chloro-4-((5-cyclopropyl-3-(2,6-dichlorophenyl)isoxazol-4-yl)methoxy)phenyl)ethynyl)-5-(methylsulfonamido)benzoic acid], for which the EC50 was 60 to 200 nM and the Emax worked out at 100%.
As for `O=C(O)c1cc(C#Cc2ccc(OCc3c(-c4c(Cl)cccc4Cl)noc3C3CC3)cc2Cl)cc(N2CCCC2)c1` [Compound I-56, 3-((2-chloro-4-((5-cyclopropyl-3-(2,6-dichlorophenyl)isoxazol-4-yl)methoxy)phenyl)ethynyl)-5-(pyrrolidin-1-yl)benzoic acid], the EC50 was no more than 20 nM and the maximal response (Emax) worked out at 96%.
In the same order, the values of `O=C(O)c1ccc(C#Cc2ccc(OCc3c(-c4c(Cl)cccc4Cl)noc3C3CC3)cc2)cc1` [Compound I-1, 4-((4-((5-cyclopropyl-3-(2,6-dichlorophenyl)isoxazol-4-yl)methoxy)phenyl)ethynyl)benzoic acid] are greater than 1000 nM and greater than 100%.
